Results from paper PMC6182381, “Population Pharmacokinetics and Exposure-Response Relationships of Naldemedine” (Pharmaceutical Research, 2018).

How the values were obtained:
[1] = test system: patients with chronic non-cancer pain and OIC; assay: SBM responder, phase 2b study 1107 V9221 (observed and PK/Efficacy logistic model); assay type: in vivo, human; settings: for SBM responder, Observation / SBM responder, Prediction: 1107V9221 (Phase 2b); for SBM Non_Responder frequency / SBM Responder frequency: PK/efficacy population, 1107 V9221 (Phase 2b); for Predicted probability of SBM responder: Phase 2b model
Source text: (§1) Exposure-response analysis was used to evaluate the efficacy and safety data of the phase 2b and phase 3 studies ([2],[5]). The PK/Efficacy analysis included the subjects of the population PK analysis or in the placebo group, who also had efficacy data for the exposure-response analysis obtained from phase 2b and phase 3 studies (1107 V9221, 1314 V9231, and 1315 V9232). The PK/Safety analysis included the subjects of the population PK analysis or in the placebo group, who also had safety data for exposure-response analysis obtained from phase 2b and phase 3 studies (1107 V9221, 1314 V9231, and 1315 V9232).
(§2) The following efficacy variables were used to evaluate the exposure-response relationship. […] In the phase 3 studies (Study No. 1314 V9231 and 1315 V9232), an SBM responder was defined as having 9 positive response weeks or more out of the 12-weeks treatment period and 3 positive response weeks out of the last 4 weeks of the 12-weeks treatment period. A positive response week was defined as a week with both ≥3 SBMs and an increase of ≥1 SBM from the baseline. A subject with any insufficient response data was treated as a “non-responder”. The occurrence of treatment-emergent adverse events of gastrointestinal disorders as system organ class, which was the most frequently occurring type, was defined by the severity and assessed as safety variables.
(§3) No covariate was tested in the exposure-response analysis because no prognostic factors of the efficacy or safety were identified in the phase 2b and phase 3 studies ([2],[5]). Efficacy and safety data in Study No. 1314 V9231 and 1315 V9232 were combined because these studies were conducted as pivotal phase 3 studies using the same study design and were of the same treatment duration. The individual AUCss values for naldemedine were estimated by empirical Bayes estimation based on the population PK model. AUCss values of the subjects in the placebo group were treated as zero (0). For efficacy (responder or non-responder) and safety (occurrence of gastrointestinal disorders or not) variables, relationships to PK parameters were examined using the logistic model as shown in Eq. (3) with SAS (Version 9.2, SAS Institute).3 Probabilityefficacy or safety event=1/1+exp−a−b×PKparameter where a and b are the parameters to be estimated.

[2] = set-up: method as in PMID 28466424, PMID 28960888; settings: cited from earlier work
[3] = test system: patients with chronic non-cancer pain and OIC; assay: Adverse events / gastrointestinal disorders, phase 3 studies 1314 V9231 and 1315 V9232 (observed and PK/Safety logistic model); assay type: in vivo, human; settings: for Predicted probability of gastrointestinal disorders: Phase 3 model
Source text: as §1, §2, §3

[4] = test system: patients with chronic non-cancer pain and OIC; assay: SBM responder, phase 3 studies 1314 V9231 and 1315 V9232 (observed and PK/Efficacy logistic model); assay type: in vivo, human; settings: for Predicted probability of SBM responder: Phase 3 model
Source text: as §1, §2, §3

[5] = test system: patients with chronic non-cancer pain and OIC; assay: Adverse events / gastrointestinal disorders, phase 2b study 1107 V9221 (observed and PK/Safety logistic model); assay type: in vivo, human; settings: for Gastrointestinal disorders, Mild / Gastrointestinal disorders, Moderate / Gastrointestinal disorders, Not_Reported / Gastrointestinal disorders, Severe: PK/safety population, 1107 V9221 (Phase 2b); for Predicted probability of gastrointestinal disorders: Phase 2b model; for Predicted probability of gastrointestinal disorders / Gastrointestinal disorders, Observation / Gastrointestinal disorders, Prediction: Moderate, Severe; for Gastrointestinal disorders, Observation / Gastrointestinal disorders, Prediction: Phase 2b
Source text: as §1, §2, §3

[6] = PK/safety population, 1314 V9231 and 1315 V9232 (Phase 3), 0.2 mg
[7] = Phase 3, Mild, Moderate, Severe, 0.2 mg
[8] = Phase 3, Moderate, Severe, 0.2 mg
[9] = 1314V9231 and 1315V9232 (Phase 3), 0.2 mg
[10] = PK/efficacy population, 1314 V9231 and 1315 V9232 (Phase 3), 0.2 mg

Q: With `CC(C)(NC(=O)C1=C(O)[C@@H]2Oc3c(O)ccc4c3[C@@]23CCN(CC2CC2)[C@H](C4)[C@]3(O)C1)c1nc(-c2ccccc2)no1` [naldemedine] as the compound, how does the “predicted probability of SBM responders” value ([1]; 0.2 mg, phase 2b study 1107 V9221) read?
A: 52.7%

Q: What about the “SBM responder, Observation” value ([1]; 0.1 mg) of the same compound?
A: 55.6

Q: And the “SBM responder, Prediction” value ([1]; 0.1 mg)?
A: 47.4

Q: And the “SBM responder, Observation” value ([1]; 0.2 mg)?
A: 66.7

Q: What about the “SBM responder, Prediction” value ([1]; 0.2 mg) of the same compound?
A: 52.7

Q: What about the “SBM responder, Observation” value ([1]; 0.4 mg) of the same compound?
A: 60.0

Q: What about the “SBM responder, Prediction” value ([1]; 0.4 mg) of the same compound?
A: 63.0

Q: What about the “SBM Non_Responder frequency” value ([1]; 0.1 mg) of the same compound?
A: 4 (44.4) Count (Percent)

Q: What about the “SBM Responder frequency” value ([1]; 0.1 mg) of the same compound?
A: 5 (55.6) Count (Percent)

Q: And the “SBM Non_Responder frequency” value ([1]; 0.2 mg)?
A: 3 (33.3) Count (Percent)

Q: And the “SBM Responder frequency” value ([1]; 0.2 mg)?
A: 6 (66.7) Count (Percent)

Q: What about the “SBM Non_Responder frequency” value ([1]; 0.4 mg) of the same compound?
A: 4 (40.0) Count (Percent)

Q: And the “SBM Responder frequency” value ([1]; 0.4 mg)?
A: 6 (60.0) Count (Percent)

Q: What about the “Predicted probability of SBM responder” value ([1]; Dose: 0.1 mg) of the same compound?
A: 0.474

Q: And the “Predicted probability of SBM responder” value ([1]; Dose: 0.2 mg)?
A: 0.527

Q: What about the “Predicted probability of SBM responder” value ([1]; Dose: 0.4 mg) of the same compound?
A: 0.630

Q: And the “time dependence of PK” value ([2]; AUC Day 1 vs AUCss Day 10, multiple dose study)?
A: time-independent

Q: And the “dose proportionality of systemic exposure” value ([2]; dose range 0.1 mg to 100 mg)?
A: almost dose proportional

Q: And the “time to reach steady state” value ([2]; multiple dose study, 3 mg, 10 mg and 30 mg, trough Days 2 to 10)?
A: ≤ 2 days

Q: What about the “predicted probability of severe gastrointestinal disorders” value ([3]; 0.2 mg and 0.4 mg, phase 3 study) of the same compound?
A: less than 3%

Q: And the “predicted probability of severe gastrointestinal disorders” value ([3]; 0.2 mg once daily)?
A: less than 3%

Q: What about the “predicted probability of mild to severe gastrointestinal disorders” value ([3]; 0.2 mg, phase 3) of the same compound?
A: 19.3%

Q: And the “predicted probability of moderate to severe gastrointestinal disorders” value ([3]; 0.2 mg, phase 3)?
A: 8.3%

Q: What about the “predicted probability of severe gastrointestinal disorders” value ([3]; 0.2 mg, phase 3) of the same compound?
A: 1.8%

Q: What about the “Gastrointestinal disorders, Mild” value [3, 6] of the same compound?
A: 52 (11.7) Count (Row percent)

Q: And the “Gastrointestinal disorders, Moderate” value [3, 6]?
A: 34 (7.6) Count (Row percent)

Q: What about the “Gastrointestinal disorders, Not_Reported” value [3, 6] of the same compound?
A: 351 (78.9) Count (Row percent)

Q: What about the “Gastrointestinal disorders, Severe” value [3, 6] of the same compound?
A: 8 (1.8) Count (Row percent)

Q: And the “Gastrointestinal disorders, Observation” value [3, 7]?
A: 21.1

Q: And the “Gastrointestinal disorders, Prediction” value [3, 7]?
A: 19.3

Q: And the “Gastrointestinal disorders, Observation” value [3, 8]?
A: 9.4

Q: What about the “Gastrointestinal disorders, Prediction” value [3, 8] of the same compound?
A: 8.3

Q: What about the “Gastrointestinal disorders, Observation” value ([3]; Phase 3, Severe, 0.2 mg) of the same compound?
A: 1.8

Q: What about the “Gastrointestinal disorders, Prediction” value ([3]; Phase 3, Severe, 0.2 mg) of the same compound?
A: 1.8

Q: What about the “Predicted probability of gastrointestinal disorders” value ([3]; Mild, Moderate, Severe, Dose: 0.1 mg) of the same compound?
A: 0.172

Q: What about the “Predicted probability of gastrointestinal disorders” value ([3]; Mild, Moderate, Severe, Dose: 0.2 mg) of the same compound?
A: 0.193

Q: What about the “Predicted probability of gastrointestinal disorders” value ([3]; Mild, Moderate, Severe, Dose: 0.4 mg) of the same compound?
A: 0.242

Q: What about the “Predicted probability of gastrointestinal disorders” value ([3]; Moderate, Severe, Dose: 0.1 mg) of the same compound?
A: 0.071

Q: What about the “Predicted probability of gastrointestinal disorders” value ([3]; Moderate, Severe, Dose: 0.2 mg) of the same compound?
A: 0.083

Q: What about the “Predicted probability of gastrointestinal disorders” value ([3]; Moderate, Severe, Dose: 0.4 mg) of the same compound?
A: 0.113

Q: What about the “Predicted probability of gastrointestinal disorders” value ([3]; Severe, Dose: 0.1 mg) of the same compound?
A: 0.015

Q: What about the “Predicted probability of gastrointestinal disorders” value ([3]; Severe, Dose: 0.2 mg) of the same compound?
A: 0.018

Q: And the “Predicted probability of gastrointestinal disorders” value ([3]; Severe, Dose: 0.4 mg)?
A: 0.027

Q: What about the “predicted probability of SBM responders” value ([4]; 0.2 mg once daily, phase 2b and phase 3 studies) of the same compound?
A: approximately 50%

Q: What about the “predicted probability of SBM responders” value ([4]; 0.2 mg, phase 3 studies 1314 V9231 and 1315 V9232) of the same compound?
A: 49.9%

Q: And the “SBM responder, Observation” value [4, 9]?
A: 53.3

Q: And the “SBM responder, Prediction” value [4, 9]?
A: 49.9

Q: And the “SBM Non_Responder frequency” value [4, 10]?
A: 208 (46.7) Count (Percent)

Q: What about the “SBM Responder frequency” value [4, 10] of the same compound?
A: 237 (53.3) Count (Percent)

Q: And the “Predicted probability of SBM responder” value ([4]; Dose: 0.1 mg)?
A: 0.433

Q: What about the “Predicted probability of SBM responder” value ([4]; Dose: 0.2 mg) of the same compound?
A: 0.499

Q: And the “Predicted probability of SBM responder” value ([4]; Dose: 0.4 mg)?
A: 0.630

Q: And the “Gastrointestinal disorders, Mild” value ([5]; 0.1 mg)?
A: 1 (11.1) Count (Row percent)

Q: And the “Gastrointestinal disorders, Moderate” value ([5]; 0.1 mg)?
A: 1 (11.1) Count (Row percent)

Q: What about the “Gastrointestinal disorders, Not_Reported” value ([5]; 0.1 mg) of the same compound?
A: 7 (77.8) Count (Row percent)

Q: And the “Gastrointestinal disorders, Severe” value ([5]; 0.1 mg)?
A: 0 (0.0) Count (Row percent)

Q: And the “Gastrointestinal disorders, Mild” value ([5]; 0.2 mg)?
A: 1 (11.1) Count (Row percent)

Q: What about the “Gastrointestinal disorders, Moderate” value ([5]; 0.2 mg) of the same compound?
A: 3 (33.3) Count (Row percent)

Q: And the “Gastrointestinal disorders, Not_Reported” value ([5]; 0.2 mg)?
A: 5 (55.6) Count (Row percent)

Q: What about the “Gastrointestinal disorders, Severe” value ([5]; 0.2 mg) of the same compound?
A: 0 (0.0) Count (Row percent)

Q: What about the “Gastrointestinal disorders, Mild” value ([5]; 0.4 mg) of the same compound?
A: 2 (20.0) Count (Row percent)

Q: And the “Gastrointestinal disorders, Moderate” value ([5]; 0.4 mg)?
A: 1 (10.0) Count (Row percent)

Q: And the “Gastrointestinal disorders, Not_Reported” value ([5]; 0.4 mg)?
A: 7 (70.0) Count (Row percent)

Q: And the “Gastrointestinal disorders, Severe” value ([5]; 0.4 mg)?
A: 0 (0.0) Count (Row percent)

Q: And the “Predicted probability of gastrointestinal disorders” value ([5]; Mild, Dose: 0.1 mg)?
A: 0.195

Q: And the “Predicted probability of gastrointestinal disorders” value ([5]; Mild, Dose: 0.2 mg)?
A: 0.254

Q: And the “Predicted probability of gastrointestinal disorders” value ([5]; Mild, Dose: 0.4 mg)?
A: 0.403

Q: What about the “Predicted probability of gastrointestinal disorders” value ([5]; Dose: 0.1 mg) of the same compound?
A: 0.078

Q: What about the “Predicted probability of gastrointestinal disorders” value ([5]; Dose: 0.2 mg) of the same compound?
A: 0.101

Q: What about the “Predicted probability of gastrointestinal disorders” value ([5]; Dose: 0.4 mg) of the same compound?
A: 0.165

Q: And the “Gastrointestinal disorders, Observation” value ([5]; Mild, 0.1 mg)?
A: 22.2

Q: And the “Gastrointestinal disorders, Prediction” value ([5]; Mild, 0.1 mg)?
A: 19.5

Q: What about the “Gastrointestinal disorders, Observation” value ([5]; Mild, 0.2 mg) of the same compound?
A: 44.4

Q: What about the “Gastrointestinal disorders, Prediction” value ([5]; Mild, 0.2 mg) of the same compound?
A: 25.4

Q: And the “Gastrointestinal disorders, Observation” value ([5]; Mild, 0.4 mg)?
A: 30.0

Q: What about the “Gastrointestinal disorders, Prediction” value ([5]; Mild, 0.4 mg) of the same compound?
A: 40.3

Q: What about the “Gastrointestinal disorders, Observation” value ([5]; 0.1 mg) of the same compound?
A: 11.1

Q: What about the “Gastrointestinal disorders, Prediction” value ([5]; 0.1 mg) of the same compound?
A: 7.8

Q: What about the “Gastrointestinal disorders, Observation” value ([5]; 0.2 mg) of the same compound?
A: 33.3

Q: What about the “Gastrointestinal disorders, Prediction” value ([5]; 0.2 mg) of the same compound?
A: 10.1

Q: What about the “Gastrointestinal disorders, Observation” value ([5]; 0.4 mg) of the same compound?
A: 10.0

Q: What about the “Gastrointestinal disorders, Prediction” value ([5]; 0.4 mg) of the same compound?
A: 16.5
